From PubChem BioAssay (NCI)
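In this assay, cells in 96-well plates receive the compound at five concentrations for 48 hours. Endpoints are linearly interpolated between the surrounding concentrations. GI50 is the concentration that inhibits growth by half. At the TGI there is no net growth.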

Columns and labels:
Experiment in all cases: NCI anticancer screen, dose series, 48 h
[1] = test system: A498 renal
[2] = test system: CCRF-CEM leukemia
[3] = test system: COLO 205 colon
[4] = test system: EKVX NSCLC
[5] = test system: MCF7 breast
[6] = test system: MDA-MB-231 breast
[7] = test system: SF-268 CNS
[8] = test system: SNB-75 CNS
[9] = test system: UACC-257 melanoma
[10] = test system: RPMI-8226 leukemia

| SMILES | TGI [1] | TGI [2] | TGI [3] | TGI [4] | TGI [5] | TGI [6] | TGI [7] | TGI [8] | TGI [9] | GI50 [3] | GI50 [4] | GI50 [6] | GI50 [10] | TGI [10] | GI50 [7] | GI50 [8] | GI50 [9] | GI50 [1] | GI50 [2] | GI50 [5] |
| --- | --- | --- | --- | --- | --- | --- | --- | --- | --- | --- | --- | --- | --- | --- | --- | --- | --- | --- | --- | --- |
| O=NNc1ccc(-c2ccccc2)cn1 | 32.7 µM | > 100 µM | > 50.3 µM | > 51.2 µM | > 23.6 µM | > 78.1 µM | 29.2 µM | 29.3 µM | > 90.6 µM | – | – | – | – | – | – | – | – | – | – | – |
| COC1CCCc2c(OC(C)=O)ccc(OC(C)=O)c21 (stereo unspecified) | – | – | – | – | – | – | > 100 µM | > 100 µM | – | – | – | – | – | – | – | – | – | – | – | – |
| CN(C)CCNC(=O)c1ccc2c(c1)oc1cc3ccccc3c(=O)n12 | – | – | 35.6 µM | 36.6 µM | – | 27.9 µM | 31.7 µM | 27.4 µM | 37.5 µM | 15.6 µM | 18.1 µM | 13 µM | 31 µM | > 100 µM | 15.4 µM | 11.1 µM | 21.7 µM | – | – | – |
| COc1ccc(CCN2CCCn3c2nc2ccccc2c3=O)cc1 | 0.814 µM | > 100 µM | 1.13 µM | > 100 µM | > 100 µM | > 100 µM | > 100 µM | – | > 100 µM | 0.0555 µM | 0.97 µM | 0.408 µM | 0.353 µM | > 100 µM | 1.16 µM | – | > 100 µM | 0.0296 µM | 0.162 µM | 0.0295 µM |
| COc1ccc(-n2cc(-c3cc(OC)c(OC)c(OC)c3)nc2SCc2cccc(C#N)c2)cc1OC | > 100 µM | > 100 µM | > 100 µM | > 100 µM | > 100 µM | > 100 µM | > 100 µM | > 100 µM | – | > 100 µM | > 100 µM | > 100 µM | > 100 µM | > 100 µM | 95.8 µM | 0.924 µM | – | > 100 µM | > 100 µM | 66.2 µM |
| CNC(=O)[C@H](Cc1c[nH]c2ccccc12)NC(=O)[C@@H](CC(=O)NO)CC(C)C | > 25 µM | – | > 25 µM | > 25 µM | > 25 µM | > 25 µM | > 25 µM | > 25 µM | > 25 µM | > 25 µM | > 25 µM | > 25 µM | – | – | > 25 µM | > 25 µM | > 25 µM | > 25 µM | – | > 25 µM |
| COc1ccc(-c2cc(=O)c3c(O)c(O)c(OC)cc3o2)cc1O | > 100 µM | > 100 µM | > 100 µM | > 100 µM | – | – | > 100 µM | > 100 µM | > 100 µM | – | – | – | – | > 100 µM | – | – | – | – | – | – |
| O=c1[nH]c2nc3ccccc3c(=O)n2nc1Cc1ccccc1 | – | > 100 µM | > 100 µM | > 100 µM | – | – | > 100 µM | > 100 µM | > 100 µM | – | – | – | – | > 100 µM | – | – | – | – | – | – |
| COc1ccccc1/C=C1\C(=O)N(C(=O)Cc2ccccc2)N=C1C | – | > 100 µM | > 100 µM | > 100 µM | – | – | > 100 µM | > 100 µM | > 100 µM | – | – | – | – | > 100 µM | – | – | – | – | – | – |
| CC(C)(C)OC(=O)N(CCCCN(CCCn1c2c(c3ccccc3c1=O)C(=O)c1ccccc1-2)C(=O)OC(C)(C)C)CCCn1c2c(c3ccccc3c1=O)C(=O)c1ccccc1-2 | – | – | > 100 µM | – | – | 47.2 µM | > 100 µM | > 100 µM | – | > 100 µM | – | 13.9 µM | 17.9 µM | 69.1 µM | 58.5 µM | > 100 µM | – | – | – | – |
| COCN1COCN(C)C1=O | > 100 µM | > 100 µM | > 100 µM | > 100 µM | – | – | > 100 µM | > 100 µM | > 100 µM | – | – | – | – | > 100 µM | – | – | – | – | – | – |
| COc1ccc(-c2nc(NC(=O)CS(=O)(=O)c3ccc(F)cc3)sc2C)cc1 | 32.8 µM | – | 30.6 µM | – | > 100 µM | > 100 µM | > 100 µM | 60.9 µM | – | 15.3 µM | – | 23.2 µM | 17.6 µM | 56.5 µM | 28.7 µM | 9.45 µM | – | 11.6 µM | – | 16.3 µM |
| O=C(NCCCN1CCN(CCCNC(=O)c2cccc3ccccc23)CC1)c1cccc2ccccc12 | > 100 µM | > 100 µM | > 100 µM | > 100 µM | – | – | – | 41.7 µM | > 100 µM | – | – | – | – | > 100 µM | – | – | – | – | – | – |
| S=C1SCC2CCCN12 (stereo unspecified) | > 100 µM | > 100 µM | > 100 µM | – | – | – | > 100 µM | > 100 µM | > 100 µM | – | – | – | – | > 100 µM | – | – | – | – | – | – |
| O=C(c1ccccc1)c1nc2c(Cl)ccc(Cl)c2cc1C(Br)Br | – | 1.33 µM | 14.5 µM | – | – | – | 2.96 µM | 2.07 µM | 1.54 µM | – | – | – | – | 2.2 µM | – | – | – | – | – | – |
| C=CCCC(O)c1cc(C)c(O)c(C)c1 (stereo unspecified) | > 100 µM | > 100 µM | > 100 µM | > 100 µM | – | – | > 100 µM | > 100 µM | > 100 µM | – | – | – | – | > 100 µM | – | – | – | – | – | – |
| CC(=O)OC1(Sc2ccccc2)CC2[C@H]3COC(C)(C)O[C@H]3CC[C@@]2(C)CC1=O (stereo partly specified) | – | – | > 100 µM | > 100 µM | – | – | – | 81.4 µM | > 100 µM | – | – | – | – | 69.7 µM | – | – | – | – | – | – |
| CC1=CC(=O)NP(=O)(Oc2ccc(Cl)cc2)N1 (stereo unspecified) | > 100 µM | > 100 µM | > 100 µM | > 100 µM | – | – | > 100 µM | > 100 µM | > 100 µM | – | – | – | – | > 100 µM | – | – | – | – | – | – |
| CN(c1cccc(C(=O)O)c1)c1cc(O/N=[N+](\[O-])N(C)C)c([N+](=O)[O-])cc1[N+](=O)[O-] | – | – | > 100 µM | > 100 µM | > 100 µM | > 100 µM | > 100 µM | > 100 µM | > 100 µM | > 100 µM | > 100 µM | > 100 µM | > 100 µM | > 100 µM | 55.5 µM | > 100 µM | > 100 µM | – | – | 59.8 µM |
| Nc1[nH]nc(Nc2ccccc2)c1-c1nc2ccccc2s1 | 4.01 µM | 9.61 µM | 3.92 µM | 4.28 µM | 8.68 µM | 3.75 µM | 8.83 µM | 10.9 µM | – | 1.89 µM | 1.26 µM | 1.59 µM | 2.24 µM | 6.65 µM | 2.36 µM | 2.39 µM | – | 1.69 µM | 0.911 µM | 2.26 µM |
